Key:
BAL inflammatory cells = assay: Aspergillus-infected asthmatic mouse model, BAL cells and lung histology; assay type: in vivo; details: asthma-inducing group; BIA 0.1 mg/kg and 0.01 mg/kg, IC87114 1 mg/kg, intratracheal
From the text: FIG. 80A and FIG. 80B show mice that were infected with aspergillus with or without BIA, or IC87114, fixing the tissue to 4% formalin, injecting paraffin to make blocks, and then cutting into 4 μm thick to react to buffer and performing hematoxylin-eosin staining. The observation result (A) and the observation result (B) by PAS staining are shown.
The result is quantified by counting the total number of cells of living BAL fluid, excluding dead cells stained in trypan blue.
A. fumigatus-induced allergic pulmonary inflammation To establish the model, mice were treated with 10 μg of A. fumigatus crude antigen extract (Greer Laboratories, Cat # XPM3D3A4, Lenoir, NC, USA) with fungal substance inactivated. 0.2 ml of incomplete Freund's adjuvant (Sigma-Aldrich, Cat # F5506-6X) in regular saline It was dissolved and mixed, and half of the preparation was deposited in the peritoneal cavity and the rest was delivered subcutaneously. After 2 weeks, mice received 20 μg of A. fumigatus antigen dissolved in normal saline through the intranasal route, after an intranasal attack After 4 days, 20 μg of A. Fumigatus antigen dissolved in normal saline was treated via the endotracheal route. Control mice were administered only saline at the same time point in time through the same route and treated with the same number of conidia. […]

[1] = tested on: tumors derived from HT1080 cells; assay: Xenograft in nude mice; assay type: in vivo; details: 1 mg/kg BIA, 5 days a week, 25 days
Description: Mice purchased 20-25 g of BALBc/Nude and conducted experiments after 1 week of preliminary breeding to adapt to the laboratory environment. This experiment was approved by the Animal Experiment Ethics Committee of Chonbuk National University (CBNU 201 5-064, CBNU 2016-56) and was carried out according to standard work instructions, and the conditions in the breeding room were kept constant temperature and relative humidity, a 12-hour contrast cycle, and water and feed were freely consumed. Experimental animals are transplanted subcutaneously with 5×10^6 cells per mouse using HT1080 cell line and MDA-MB-231 cell line, and after 7-10 days, mice forming tumor sizes of 100 mm^3 are randomly divided into control and experimental groups. […] The tumor size was measured with a caliper and calculated using the following formula: […]
In culture, exponentially growing BI-1 (TMBIM6) knockout and WT HT1080 cells were treated with trypsin and quantified through trypan blue staining differentiation, and 3-5×10^6 cells were resuspended in 0.1 ml PBS. […]
After 25-28 days, the mice were euthanized, solid tumors were incised, and tumor volumes were recorded. Tumor size was measured with a caliper. The tumor volume (mm^3) was calculated by the formula [(shortest diameter)2×longest diameter]/2. […]

HT1080 = assay: Cell proliferation/viability with BIA, IC50 after 3 days; assay type: cell-based; details: Homo sapiens, HT-1080, 72 h; HT1080, treatment for 3 days
[2] = tested on: HT1080, PANC-1, Capan-1 and MIA PaCa-2; assay: Cell viability (crystal violet), BIA versus mTOR inhibitors; assay type: cell-based; details: 10 μM
PANC-1 cells = assay: as above; assay type: cell-based; details: 10 μM

**Q.** For `Nc1ccccc1C(=O)/C=C/c1cccc([N+](=O)[O-])c1` [BIA, 2E-1-2-Aminophenyl-3-3-nitrophenyl-2-propen-1-one], which “all BAL inflammatory cells” value (BAL inflammatory cells) is on record?
**A.** inhibited

**Q.** What about the tumor growth [1] of the same molecule?
**A.** significantly impaired

**Q.** And the IC50 (HT1080)?
**A.** 1.7 ± 0.1 µM

**Q.** And the “cell viability compared to OSI-027 and Voxtalisib and other mTOR inhibitors” value [2]?
**A.** significantly reduced

**Q.** What about the live cells (PANC-1 cells) of the same molecule?
**A.** almost removed live cells

Reference: patent publication US20240139125A1 (INDUSTRIAL COOPERATION FOUNDATION JEONBUK NATIONAL …, priority 2020, published 2024)
